# Active and inactive are the calls of the source. No cut-off for these calls is given here.
# Key:
# IB3-1 [1] = assay: Binding affinity to CFTR mRNA UGA mutant in human IB3-1 cells carrying W1282X mutation in CFTR gene assessed as increase in CFTR expression measured after 24 to 72 hrs by Western blot analysis; format: cell-based
# HeLa = assay: Binding affinity to Photinus pyralis luciferase mRNA harboring the UGA premature stop codon expressed in human HeLa cells assessed as suppression of nonsense mutations by read-through of premature stop codon at 12 uM measured after 24 hrs by luminescence analysis; format: cell-based
# [2] = Cytotoxicity against human HeLa cells assessed as reduction in cell viability at 12 uM measured after 24 to 72 hrs; format: toxicity, cell-based
# [3] = Cytotoxicity against human HeLa cells assessed as reduction in cell viability at 300 ug/ml measured after 24 to 72 hrs; format: toxicity, cell-based
# IB3-1 [4] = assay: (§1) Binding affinity to CFTR mRNA UGA mutant in human IB3-1 cells carrying W1282X mutation in CFTR gene assessed as suppression of nonsense mutations by read-through of UGA premature stop codon measured as localization of CFTR in cell membrane after 24 hrs by DAPI/Alexa-488/WGA-Alexa594 staining-based immunofluorescence analysis; format: cell membranes
# IB3-1 [5] = assay: as §1, with “induction” for “localization”, “re-expression” for “in cell membrane”; format: cell-based
SMILES,Activity [2],also measured
O=C(O)c1cccc(-c2noc(-c3ccccc3F)n2)c1 [ATALUREN],Non-Toxic,Activity (IB3-1 [1]): Active; Activity (HeLa): Active
Cc1cccc(-c2nc(-c3ccncc3)no2)c1,Non-Toxic,–
N#Cc1cccc(-c2nc(-c3ccccn3)no2)c1,Non-Toxic,–
Cc1cccc(-c2noc(-c3ccccc3C)n2)c1,Non-Toxic,–
CN[C@@H]1[C@@H](O)[C@@H](O[C@H]2[C@H](O)[C@@H](O[C@H]3O[C@H](C(C)O)[C@@H](O)[C@H](O)[C@H]3N)[C@H](N)C[C@@H]2N)OC[C@]1(C)O (some centres undefined),–,Activity [3]: Toxic
Cc1cccc(-c2nc(-c3ccccc3)no2)c1,Non-Toxic,–
Cc1cccc(-c2nc(-c3cccnc3)no2)c1,Non-Toxic,–
Cc1cccc(-c2nc(-c3ccccn3)no2)c1,Non-Toxic,Activity (IB3-1 [4]): Active; Activity (IB3-1 [5]): Active; Activity (IB3-1 [1]): Active; Activity (HeLa): Active

# Reference: ChEMBL document CHEMBL3867424, “Exploring the readthrough of nonsense mutations by non-acidic Ataluren analogues selected by ligand-based virtual screening” (Eur J Med Chem, 2016)
